Reference: US20240059703A1 (AMGEN INC., priority 2021, published 2024)

Biological target: KRAS G12C (Homo sapiens (Human), UniProt P01116, C118A/G12C)
Assay: 2 h coupled exchange assay
Assay type: biochemical
Conditions: Avg 2 h Coupled exchange IC50, 2 h compound pre-incubation, SOS-mediated nucleotide exchange
Protocol: The term “2 h coupled exchange assay” or “20 h coupled exchange assay” as used herein refers to the assay described in the Section entitled “BIOLOGICAL EVALUATION.”

KRAS G12C, sequence (P01116 other isoform, or with tags, fused parts or gaps G12C/C118A): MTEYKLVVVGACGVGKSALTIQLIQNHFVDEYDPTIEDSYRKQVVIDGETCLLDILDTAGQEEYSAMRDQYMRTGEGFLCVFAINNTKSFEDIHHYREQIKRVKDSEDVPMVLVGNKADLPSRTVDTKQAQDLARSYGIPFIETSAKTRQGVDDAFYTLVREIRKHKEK

| SMILES | IC50 |
| --- | --- |
| C=CC(=O)N1CC2(CCN(c3nc4c(c(-c5c(C)c(Cl)cc6[nH]ncc56)c3Cl)COC(C)(C)C4)C2)C1 [Example 2-92, 1-(6-(3-chloro-4-(6-chloro-5-methyl-1H-indazol-4-yl)-7,7-dimethyl-7,8-dihydro-5H-pyrano[4,3-b]pyridin-2-yl)-2,6-diazaspiro[3.4]octan-2-yl)-2-propen-1-one] | 21 nM |
| Cc1ccc2[nH]ncc2c1-c1c(C#N)c(N2CCC3(CN(C(=O)/C=C/CN(C)C)C3)C2)cc2c1COCC2 [Example 2-94, 6-(2-((2E)-4-(dimethylamino)-2-butenoyl)-2,6-diazaspiro[3.4]octan-6-yl)-8-(5-methyl-1H-indazol-4-yl)-3,4-dihydro-1H-2-benzopyran-7-carbonitrile] | 610 nM |
| C=CC(=O)N1CC2(CCN(c3cc4c(c(-c5c(C)ccc6cnn(C)c56)c3Cl)OCCC4)C2)C1 [Example 2-102, 1-(6-(7-chloro-8-(1,6-dimethyl-1H-indazol-7-yl)-3,4-dihydro-2H-chromen-6-yl)-2,6-diazaspiro[3.4]octan-2-yl)-2-propen-1-one] | 70 nM |
| C=CC(=O)N1CC2(CCN(c3nc4c(c(-c5cc(S(N)(=O)=O)ccc5C)c3C#N)CCC(C)(C)C4)C2)C1 [Example 2-106, 3-(3-cyano-7,7-dimethyl-2-(2-(2-propenoyl)-2,6-diazaspiro[3.4]octan-6-yl)-5,6,7,8-tetrahydro-4-quinolinyl)-4-methylbenzenesulfonamide] | 288 nM |
| C=CC(=O)N1CC2(CCN(c3nc4ccccc4c(-c4c(CC)ccc5[nH]ncc45)c3C#N)C2)C1 [Example 4, 4-(5-ethyl-1H-indazol-4-yl)-2-(2-(2-propenoyl)-2,6-diazaspiro[3.4]octan-6-yl)-3-quinolinecarbonitrile] | 1050 nM |
| C=CC(=O)N1CC2(CCN(c3nc4ccccc4c(-c4c(C)ccc5[nH]ncc45)c3C3CC3)C2)C1 [Example 6, 1-(6-(3-cyclopropyl-4-(5-methyl-1H-indazol-4-yl)quinolin-2-yl)-2,6-diazaspiro[3.4]octan-2-yl)prop-2-en-1-one] | 3500 nM |
| C=CC(=O)N1CC2(CCN(c3nc4ccccc4c(-c4c(C)ccc5[nH]ncc45)c3C)C2)C1 [Example 8, 1-(6-(3-Methyl-4-(5-methyl-1H-indazol-4-yl)quinolin-2-yl)-2,6-diazaspiro[3.4]octan-2-yl)prop-2-en-1-one] | 1270 nM |
| C=CC(=O)N1CC2(CCN(c3nc4c(c(-c5c(F)ccc6cc[nH]c56)c3C#N)C[C@H]3C[C@@H]4C3(C)C)C2)C1 [Example 12-15, (1R,9R)-6-(6-fluoro-1H-indol-7-yl)-10,10-dimethyl-4-(2-(2-propenoyl)-2,6-diazaspiro[3.4]octan-6-yl)-3-azatricyclo[7.1.1.0^2,7] undeca-2,4,6-triene-5-carbonitrile] | 464 nM |
| C=CC(=O)N1CC2(CCN(c3nc4c(c(-c5c(Cl)c(C)cc6[nH]ncc56)c3C#N)C[C@H]3C[C@@H]4C3(C)C)C2)C1 [Example 12-18, (1R,9R)-6-(5-chloro-6-methyl-1H-indazol-4-yl)-10,10-dimethyl-4-(2-(2-propenoyl)-2,6-diazaspiro[3.4]octan-6-yl)-3-azatricyclo[7.1.1.0^2,7] undeca-2,4,6-triene-5-carbonitrile] | 988 nM |
| C=CC(=O)N1CC2(CCN(c3nc4c(c(-c5cccc6snnc56)c3C#N)COC(C)(C)C4)C2)C1 [Example 12-21, 4-(1,2,3-benzothiadiazol-4-yl)-7,7-dimethyl-2-(2-(2-propenoyl)-2,6-diazaspiro[3.4]octan-6-yl)-7,8-dihydro-5H-pyrano[4,3-b]pyridine-3-carbonitrile] | 601 nM |
| C=CC(=O)N1CC2(CCN(c3nc4c(c(-c5c(C)c(C)cc6cnn(C)c56)c3C)CCN(C(C)C)C4)C2)C1 [Example 12-25, 1-(6-(3-methyl-7-(2-propanyl)-4-(1,5,6-trimethyl-1H-indazol-7-yl)-5,6,7,8-tetrahydro-1,7-naphthyridin-2-yl)-2,6-diazaspiro[3.4]octan-2-yl)-2-propen-1-one] | 141 nM |
| C=CC(=O)N1CC2(CCN(c3nc4c(c(-c5c(C)ccc6nonc56)c3C#N)C[C@H]3C[C@@H]4C3(C)C)C2)C1 [Example 12-26, (1R,9R)-10,10-dimethyl-6-(5-methyl-2,1,3-benzoxadiazol-4-yl)-4-(2-(2-propenoyl)-2,6-diazaspiro[3.4]octan-6-yl)-3-azatricyclo[7.1.1.0^2,7] undeca-2,4,6-triene-5-carbonitrile] | 687 nM |
| C=CC(=O)N1CC2(CCN(c3nc4c(c(-c5cccc6cc(C(F)(F)F)[nH]c56)c3C#N)C[C@H]3C[C@@H]4C3(C)C)C2)C1 [Example 12-27, (1R,9R)-10,10-dimethyl-4-(2-(2-propenoyl)-2,6-diazaspiro[3.4]octan-6-yl)-6-(2-(trifluoromethyl)-1H-indol-7-yl)-3-azatricyclo[7.1.1.0^2,7] undeca-2,4,6-triene-5-carbonitrile] | 476 nM |

The remaining lines, values ahead:

| IC50 | SMILES |
| --- | --- |
| 623 nM | C=CC(=O)N1CC2(CCN(c3nc4c(c(-c5ccc(F)c6cc[nH]c56)c3C#N)COC(C)(C)C4)C2)C1 [Example 12-3, 4-(4-fluoro-1H-indol-7-yl)-7,7-dimethyl-2-(2-(2-propenoyl)-2,6-diazaspiro[3.4]octan-6-yl)-7,8-dihydro-5H-pyrano[4,3-b]pyridine-3-carbonitrile] |
| 818 nM | C=CC(=O)N1CC2(CCN(c3nc4c(c(-c5cccc6cc(N)ccc56)c3C#N)COC(C)(C)C4)C2)C1 [Example 12-4, 4-(6-amino-1-naphthalenyl)-7,7-dimethyl-2-(2-(2-propenoyl)-2,6-diazaspiro[3.4]octan-6-yl)-7,8-dihydro-5H-pyrano[4,3-b]pyridine-3-carbonitrile] |
| 463 nM | C=CC(=O)N1CC2(CCN(c3nc4c(c(-c5ccc(Cl)c6ccn(C)c56)c3C#N)COC(C)(C)C4)C2)C1 [Example 12-5, 4-(4-chloro-1-methyl-1H-indol-7-yl)-7,7-dimethyl-2-(2-(2-propenoyl)-2,6-diazaspiro[3.4]octan-6-yl)-7,8-dihydro-5H-pyrano[4,3-b]pyridine-3-carbonitrile] |
| 213 nM | C=CC(=O)N1CC2(CCN(c3nc4c(c(-c5ccc(Cl)c6cc[nH]c56)c3C#N)COC(C)(C)C4)C2)C1 [Example 12-6, 4-(4-chloro-1H-indol-7-yl)-7,7-dimethyl-2-(2-(2-propenoyl)-2,6-diazaspiro[3.4]octan-6-yl)-7,8-dihydro-5H-pyrano[4,3-b]pyridine-3-carbonitrile] |
| 435 nM | C=CC(=O)N1CC2(CCN(c3nc4c(c(-c5cc(Cl)cc6cc[nH]c56)c3C#N)COC(C)(C)C4)C2)C1 [Example 12-7, 4-(5-chloro-1H-indol-7-yl)-7,7-dimethyl-2-(2-(2-propenoyl)-2,6-diazaspiro[3.4]octan-6-yl)-7,8-dihydro-5H-pyrano[4,3-b]pyridine-3-carbonitrile] |
| 399 nM | C=CC(=O)N1CC2(CCN(c3nc4c(c(-c5cc(Cl)cc6ccn(C)c56)c3C#N)COC(C)(C)C4)C2)C1 [Example 12-8, 4-(5-chloro-1-methyl-1H-indol-7-yl)-7,7-dimethyl-2-(2-(2-propenoyl)-2,6-diazaspiro[3.4]octan-6-yl)-7,8-dihydro-5H-pyrano[4,3-b]pyridine-3-carbonitrile] |
| 252 nM | C=CC(=O)N1CC2(CCN(c3nc4c(c(-c5c(Cl)ccc6cc[nH]c56)c3C#N)COC(C)(C)C4)C2)C1 [Example 12-13, 4-(6-chloro-1H-indol-7-yl)-7,7-dimethyl-2-(2-(2-propenoyl)-2,6-diazaspiro[3.4]octan-6-yl)-7,8-dihydro-5H-pyrano[4,3-b]pyridine-3-carbonitrile] |
| 246 nM | C=CC(=O)N1CC2(CCN(c3nc4c(c(-c5c(Cl)ccc6ccn(C)c56)c3C#N)COC(C)(C)C4)C2)C1 [Example 12-14, 4-(6-chloro-1-methyl-1H-indol-7-yl)-7,7-dimethyl-2-(2-(2-propenoyl)-2,6-diazaspiro[3.4]octan-6-yl)-7,8-dihydro-5H-pyrano[4,3-b]pyridine-3-carbonitrile] |
| 242 nM | C=CC(=O)N1CC2(CCN(c3nc4c(c(-c5c(Cl)ccc6[nH]ccc56)c3C#N)COC(C)(C)C4)C2)C1 [Example 12-16, 4-(5-chloro-1H-indol-4-yl)-7,7-dimethyl-2-(2-(2-propenoyl)-2,6-diazaspiro[3.4]octan-6-yl)-7,8-dihydro-5H-pyrano[4,3-b]pyridine-3-carbonitrile] |
| 132 nM | C=CC(=O)N1CC2(CCN(c3nc4c(c(-c5cccc6cc(N)ncc56)c3C#N)COC(C)(C)C4)C2)C1 [Example 12-17, 4-(3-amino-8-isoquinolinyl)-7,7-dimethyl-2-(2-(2-propenoyl)-2,6-diazaspiro[3.4]octan-6-yl)-7,8-dihydro-5H-pyrano[4,3-b]pyridine-3-carbonitrile] |
| 263 nM | C=CC(=O)N1CC2(CCN(c3nc4c(c(-c5cc(F)c(O)c6ccccc56)c3C#N)COC(C)(C)C4)C2)C1 [Example 12-28, 4-(3-fluoro-4-hydroxy-1-naphthalenyl)-7,7-dimethyl-2-(2-(2-propenoyl)-2,6-diazaspiro[3.4]octan-6-yl)-7,8-dihydro-5H-pyrano[4,3-b]pyridine-3-carbonitrile] |
| 438 nM | C=CC(=O)N1CC2(CCN(c3nc4c(c(-c5ncc(Cl)c6ccccc56)c3C#N)COC(C)(C)C4)C2)C1 [Example 12-30, 4-(4-chloro-1-isoquinolinyl)-7,7-dimethyl-2-(2-(2-propenoyl)-2,6-diazaspiro[3.4]octan-6-yl)-7,8-dihydro-5H-pyrano[4,3-b]pyridine-3-carbonitrile] |
| 189 nM | C=CC(=O)N1CC2(CCN(c3nc4c(c(-c5ccc(O)c6ccccc56)c3C#N)COC(C)(C)C4)C2)C1 [Example 12-31, 4-(4-hydroxy-1-naphthalenyl)-7,7-dimethyl-2-(2-(2-propenoyl)-2,6-diazaspiro[3.4]octan-6-yl)-7,8-dihydro-5H-pyrano[4,3-b]pyridine-3-carbonitrile] |
| 515 nM | C=CC(=O)N1CC2(CCN(c3nc4c(c(-c5cccc6ccc(O)cc56)c3C#N)COC(C)(C)C4)C2)C1 [Example 12-32, 4-(7-hydroxy-1-naphthalenyl)-7,7-dimethyl-2-(2-(2-propenoyl)-2,6-diazaspiro[3.4]octan-6-yl)-7,8-dihydro-5H-pyrano[4,3-b]pyridine-3-carbonitrile] |
